Reference: the NIST ThermoML archive (doi:10.1016/j.tca.2006.04.022)

Experiment: molar heat capacity at constant pressure
Conditions: 101.33 kPa, Vacuum adiabatic calorimetry

CCOS(=O)(=O)[O-].CCn1cc[n+](C)c1 [1-ethyl-3-methylimidazolium ethyl sulfate]
Conditions | molar heat capacity at constant pressure [J/K/mol]
79.23 K, Glass | 127.8
79.7 K, Glass | 128.6
80.51 K, Glass | 129.4
81.67 K, Glass | 130.9
82.84 K, Glass | 131.5
83.99 K, Glass | 133.2
85.31 K, Glass | 135.2
86.78 K, Glass | 136.3
88.25 K, Glass | 137.9
89.7 K, Glass | 138.8
91.13 K, Glass | 141.2
92.56 K, Glass | 142.2
93.97 K, Glass | 143.4
95.39 K, Glass | 145.2
96.79 K, Glass | 146.4
98.17 K, Glass | 147.5
99.54 K, Glass | 149.6
100.91 K, Glass | 151
102.27 K, Glass | 151.6
103.61 K, Glass | 152.9
104.96 K, Glass | 154.3
106.29 K, Glass | 155.3
107.62 K, Glass | 155.8
108.95 K, Glass | 157.3
110.26 K, Glass | 158.3
111.57 K, Glass | 159.1
112.87 K, Glass | 160.6
114.17 K, Glass | 162.4
115.46 K, Glass | 163.1
116.74 K, Glass | 163.6
118.02 K, Glass | 165.2
119.29 K, Glass | 166.8
120.55 K, Glass | 167.9
121.82 K, Glass | 168.9
123.06 K, Glass | 170.1
124.32 K, Glass | 170.7
125.55 K, Glass | 172.1
126.8 K, Glass | 173.9
128.22 K, Glass | 174.7
129.84 K, Glass | 176.7
131.45 K, Glass | 178.2
133.04 K, Glass | 178.9
134.63 K, Glass | 180
136.21 K, Glass | 181.3
137.77 K, Glass | 183.2
139.34 K, Glass | 184.6
140.89 K, Glass | 185.1
142.73 K, Glass | 187.4
144.86 K, Glass | 189.6
146.97 K, Glass | 191.6
149.07 K, Glass | 194.6
151.16 K, Glass | 196.7
153.21 K, Glass | 198.7
155.27 K, Glass | 200.9
157.3 K, Glass | 202.8
159.33 K, Glass | 203.6
161.34 K, Glass | 205.9
163.34 K, Glass | 208.6
165.33 K, Glass | 210.2
167.3 K, Glass | 212.6
169.27 K, Glass | 214.9
171.23 K, Glass | 216.9
173.18 K, Glass | 218.1
175.11 K, Glass | 220.4
177.05 K, Glass | 223.2
178.98 K, Glass | 226
180.91 K, Glass | 229.3
182.83 K, Glass | 231.6
184.74 K, Glass | 234.3
186.65 K, Glass | 238
188.56 K, Glass | 243.9
190.42 K, Glass | 251.8
192.11 K, Glass | 273.4
193.57 K, Glass | 313.7
194.94 K, Glass | 340.7
196.36 K, Liquid | 346.8
197.81 K, Liquid | 347.7
199.27 K, Liquid | 348.4
200.76 K, Liquid | 349.4
202.25 K, Liquid | 349.9
203.79 K, Liquid | 350.5
205.33 K, Liquid | 350.9
206.9 K, Liquid | 351.5
208.47 K, Liquid | 351.9
210.06 K, Liquid | 352.4
211.66 K, Liquid | 352.8
213.18 K, Liquid | 353.2
214.52 K, Liquid | 353.7
215.86 K, Liquid | 354.1
217.18 K, Liquid | 354.5
218.5 K, Liquid | 354.9
219.81 K, Liquid | 355.4
221.12 K, Liquid | 355.7
222.41 K, Liquid | 356.1
223.71 K, Liquid | 356.5
225 K, Liquid | 356.8
226.27 K, Liquid | 357.1
227.54 K, Liquid | 357.5
228.79 K, Liquid | 357.8
230.03 K, Liquid | 358.1
231.26 K, Liquid | 358.4
232.46 K, Liquid | 359
233.66 K, Liquid | 359.3
234.84 K, Liquid | 359.6
236.02 K, Liquid | 359.8
237.19 K, Liquid | 360.2
238.37 K, Liquid | 360.5
239.54 K, Liquid | 361
240.7 K, Liquid | 361.3
241.86 K, Liquid | 361.5
243.01 K, Liquid | 361.9
244.15 K, Liquid | 362.2
245.29 K, Liquid | 362.5
246.43 K, Liquid | 363.1
247.58 K, Liquid | 363.5
248.73 K, Liquid | 363.9
249.88 K, Liquid | 364.2
251.02 K, Liquid | 364.5
252.17 K, Liquid | 364.8
253.31 K, Liquid | 365.5
254.45 K, Liquid | 365.8
255.6 K, Liquid | 366.1
256.73 K, Liquid | 366.3
257.87 K, Liquid | 366.8
259 K, Liquid | 367.1
260.13 K, Liquid | 367.4
261.27 K, Liquid | 367.6
262.4 K, Liquid | 367.8
263.53 K, Liquid | 368
264.66 K, Liquid | 368.3
265.8 K, Liquid | 368.7
266.93 K, Liquid | 369.1
268.06 K, Liquid | 369.4
269.19 K, Liquid | 369.5
270.33 K, Liquid | 369.9
271.45 K, Liquid | 370.3
272.58 K, Liquid | 370.8
273.71 K, Liquid | 371
274.83 K, Liquid | 371.2
275.94 K, Liquid | 371.5
277.06 K, Liquid | 371.8
278.18 K, Liquid | 372
279.28 K, Liquid | 372.4
280.39 K, Liquid | 373
281.5 K, Liquid | 373.1
282.62 K, Liquid | 373.5
283.72 K, Liquid | 373.8
284.83 K, Liquid | 374.2
285.95 K, Liquid | 374.5
287.05 K, Liquid | 374.7
288.15 K, Liquid | 375
289.26 K, Liquid | 375.4
290.37 K, Liquid | 375.6
291.47 K, Liquid | 376
292.58 K, Liquid | 376.1
293.69 K, Liquid | 376.5
294.79 K, Liquid | 376.8
295.9 K, Liquid | 377
297 K, Liquid | 377.4
298.11 K, Liquid | 378
299.22 K, Liquid | 378.2
300.32 K, Liquid | 378.6
301.43 K, Liquid | 378.9
302.54 K, Liquid | 379.1
303.64 K, Liquid | 379.3
304.74 K, Liquid | 379.6
305.86 K, Liquid | 379.9
306.96 K, Liquid | 380.1
308.07 K, Liquid | 380.3
309.18 K, Liquid | 380.4
310.29 K, Liquid | 380.8
311.4 K, Liquid | 380.9
312.52 K, Liquid | 381.2
313.63 K, Liquid | 381.6
314.75 K, Liquid | 381.8
315.85 K, Liquid | 382
316.97 K, Liquid | 382.3
318.08 K, Liquid | 382.7
319.19 K, Liquid | 383
320.31 K, Liquid | 383.1
321.42 K, Liquid | 383.4
322.53 K, Liquid | 383.6
323.66 K, Liquid | 383.9
324.75 K, Liquid | 383.9
325.84 K, Liquid | 384.4
326.92 K, Liquid | 384.6
327.99 K, Liquid | 384.8
329.08 K, Liquid | 384.9
330.17 K, Liquid | 385.1
331.26 K, Liquid | 385.6
332.35 K, Liquid | 385.9
333.43 K, Liquid | 386.1
334.52 K, Liquid | 386.5
335.6 K, Liquid | 386.6
336.68 K, Liquid | 386.9
337.77 K, Liquid | 387.3
338.86 K, Liquid | 387.4
339.94 K, Liquid | 387.8
341.04 K, Liquid | 388.1
342.13 K, Liquid | 388.3
343.22 K, Liquid | 388.6
344.31 K, Liquid | 388.9
345.4 K, Liquid | 389.2
346.49 K, Liquid | 389.5
347.58 K, Liquid | 389.7
348.65 K, Liquid | 390
349.73 K, Liquid | 390.2
350.82 K, Liquid | 390.5
351.91 K, Liquid | 390.8
353.01 K, Liquid | 391.3
354.11 K, Liquid | 391.6
355.22 K, Liquid | 392
356.31 K, Liquid | 392.3
357.42 K, Liquid | 392.5
358.53 K, Liquid | 392.7
359.63 K, Liquid | 392.8
360.75 K, Liquid | 392.9
361.87 K, Liquid | 393.1
363 K, Liquid | 393.4
364.13 K, Liquid | 393.5
365.29 K, Liquid | 393.6
366.38 K, Liquid | 393.9
367.47 K, Liquid | 394.1
368.52 K, Liquid | 394.5
369.63 K, Liquid | 394.7
370.76 K, Liquid | 394.9
371.78 K, Liquid | 395.1
372.82 K, Liquid | 395.3
373.9 K, Liquid | 395.6
374.98 K, Liquid | 395.8
376.02 K, Liquid | 396.2
377.08 K, Liquid | 396.5
378.13 K, Liquid | 396.8
379.52 K, Liquid | 397.1
380.42 K, Liquid | 397.3
381.38 K, Liquid | 397.5
382.35 K, Liquid | 397.8
383.43 K, Liquid | 398
384.34 K, Liquid | 398.2
385.25 K, Liquid | 398.5
386.14 K, Liquid | 398.8
387.09 K, Liquid | 399.1
388.01 K, Liquid | 399.5
388.98 K, Liquid | 399.7
389.95 K, Liquid | 399.9
